Structures are written as SMILES.

The subject of assay [1] is Leishmania infantum. The assay is described as follows: Anti-leishmanial activity against Leishmania infantum MHOM/BR/72 promastigotes assessed as parasite growth inhibition incubated for 72 hrs by MTT assay. Type of assay: functional, organism-based. The note with it: MHOM/BR/72, 72 h. (Formazan colour is commonly taken as a measure of viable cells.)
Assay [2] can be described thus: Selectivity index, ratio of EC50 for BALB/c mouse peritoneal macrophages to EC50 for Trypanosoma cruzi Y epimastigotes.
Assay [3] relates to Leishmania amazonensis. The assay is described as follows: Anti-leishmanial activity against Leishmania amazonensis MPRO/BR/1972/M1841-LV-79 promastigotes assessed as parasite growth inhibition incubated for 72 hrs by MTT assay. Type of assay: functional, organism-based. The following applies: MPRO/BR/1972/M1841-LV-79, 72 h.
The nature of assay [4]: Selectivity index, ratio of EC50 for BALB/c mouse peritoneal macrophages to EC50 for Leishmania infantum MHOM/BR/72 promastigotes.
A further assay has as its system Trypanosoma cruzi. Put plainly: Anti-trypanosomal activity against Trypanosoma cruzi Y epimastigotes assessed as parasite growth inhibition incubated for 72 hrs by MTT assay. The format is functional, organism-based.
Assay [5] is described as follows: Selectivity index, ratio of EC50 for BALB/c mouse peritoneal macrophages to EC50 for Leishmania amazonensis MPRO/BR/1972/M1841-LV-79 promastigotes.
The nature of assay [6]: Cytotoxicity against Swiss mouse peritoneal macrophages incubated for 24 hrs by MTT assay. The note with it: Peritoneal macrophage cell.
Assay [7] is described as follows: Selectivity index, ratio of EC50 for BALB/c mouse peritoneal macrophages to EC50 for Leishmania amazonensis MPRO/BR/1972/M1841-LV-79 amastigotes.
Assay [8] is described as follows: Selectivity index, ratio of EC50 for BALB/c mouse peritoneal macrophages to EC50 for Leishmania infantum MHOM/BR/72 amastigotes.
For assay [9], the system named is Leishmania amazonensis. Put plainly: Anti-leishmanial activity against Leishmania amazonensis MPRO/BR/1972/M1841-LV-79 amastigotes infected in BALB/c mouse peritoneal macrophages assessed as reduction in the infection index incubated for 24 hrs by Giemsa staining method. Type of assay: functional, organism-based. The note with it: MPRO/BR/1972/M1841-LV-79, 24 h.

The test system of assay [10] is Leishmania infantum. Put plainly: Anti-leishmanial activity against Leishmania infantum MHOM/BR/72 amastigotes infected in BALB/c mouse peritoneal macrophages assessed as reduction in the infection index incubated for 24 hrs by Giemsa staining method. The note with it: MHOM/BR/72, 24 h. The format is functional, organism-based.

For `O=C(/C=C/c1cccc(O)c1)c1ccccc1` [3-HYDROXY CHALCONE], the EC50 (in general, the concentration needed to bring the measured effect to its halfway point) with Leishmania infantum [1] was 185 µM; in the assay on Leishmania amazonensis [3], 412 µM; in the assay with Trypanosoma cruzi it was 68.3 µM; in assay [6], 143 µM. For the same molecule, the “Ratio EC50” value in assay [2] amounted to 2.09; in assay [4], 0.96; in assay [5], 0.35.
As for `CC(C)=CCC/C(C)=C/CC/C(C)=C/COc1ccccc1/C=C/C(=O)c1ccccc1`, the “Ratio EC50” value in assay [7] is on record as 48.5; in assay [8], 62.79; in assay [2], 2.03; in assay [4], 13.78; in assay [5], 21.74. Besides, the EC50 with Leishmania infantum [1] worked out at 10.2 µM; with Leishmania amazonensis [9], 2.9 µM; with Leishmania amazonensis [3], 6.47 µM; with Leishmania infantum [10] it was 2.24 µM; in the assay on Trypanosoma cruzi, 69.4 µM; in [6], 141 µM.
For the molecule `CC(C)=CCOc1ccccc1/C=C/C(=O)c1ccccc1`, the “Ratio EC50” value in assay [7] was found to be 5.58; in assay [8], 10.69; in assay [2], 5.16; in assay [4] it was 23.73; in assay [5] it was 25.41. For the same molecule, the EC50 in the assay with Leishmania infantum [1] was determined as 4.69 µM; in the assay on Leishmania amazonensis [9], 19.9 µM; in the assay on Leishmania amazonensis [3], 4.38 µM; in the assay on Leishmania infantum [10] it was 10.4 µM; in the assay on Trypanosoma cruzi, 21.6 µM; in assay [6], 111 µM.
On to `CC(C)=CCC/C(C)=C/CC/C(C)=C/COc1cccc(/C=C/C(=O)c2ccccc2)c1`, for which the “Ratio EC50” value came to 2.52 in assay [7]; 1.69 in [8]; 2.32 in assay [2]; 9.22 in assay [4]; 6 in assay [5]. Besides, the EC50 in the assay on Leishmania infantum [1] amounted to 5.98 µM; in the assay with Leishmania amazonensis [9], 21.9 µM; with Leishmania amazonensis [3] it was 9.25 µM; in the assay with Leishmania infantum [10], 32.5 µM; with Trypanosoma cruzi, 23.8 µM; in assay [6] it was 55.1 µM.
In the case of `N=C(N)c1ccc(OCCCCCOc2ccc(C(=N)N)cc2)cc1` [PENTAMIDINE], the “Ratio EC50” value in assay [7] came to 5.71; in assay [8], 1.81; in [4] it was 0.53; in assay [5], 3.5. In addition, the EC50 with Leishmania infantum [1] amounted to 67.7 µM; with Leishmania amazonensis [9], 6.25 µM; in the assay with Leishmania amazonensis [3], 10.2 µM; in the assay on Leishmania infantum [10], 19.8 µM; in assay [6], 35.7 µM.
For the molecule `O=C(Cn1ccnc1[N+](=O)[O-])NCc1ccccc1` [BENZNIDAZOLE], the EC50 in the assay with Trypanosoma cruzi came out at 4.07 µM.
For `O=C(/C=C/c1ccccc1O)c1ccccc1`, the EC50 with Leishmania infantum [1] was 91.7 µM; with Leishmania amazonensis [3], 334 µM; with Trypanosoma cruzi, 75.9 µM; in assay [6], 143 µM. Besides, the “Ratio EC50” value is recorded as 1.88 in [2], 1.56 in [4] and 0.43 in assay [5].
Regarding `O=C(/C=C/c1ccccc1)c1ccccc1` [CHALCONE], the EC50 is 8.89 µM in the assay with Leishmania infantum [1], 13.2 µM in the assay with Leishmania amazonensis [3], 103 µM with Trypanosoma cruzi and 9.5 µM in [6]. Further, the “Ratio EC50” value was 0.09 in assay [2], 1.06 in assay [4] and 0.7 in assay [5].
On to `C[C@@H]1[C@H](O)[C@@H](C)/C=C/C=C/C=C/C=C/C=C/C=C/C=C/[C@H](O[C@@H]2O[C@H](C)[C@@H](O)[C@H](N)[C@@H]2O)C[C@@H]2O[C@](O)(C[C@@H](O)C[C@@H](O)[C@H](O)CC[C@@H](O)C[C@@H](O)CC(=O)O[C@H]1C)C[C@H](O)[C@H]2C(=O)O` [AMPHOTERICIN B], for which the “Ratio EC50” value in [7] is listed as 4.7; in [8], 7.75; in assay [4], 25.11; in assay [5], 7.17. The EC50 with Leishmania infantum [1] was found to be 0.92 µM; with Leishmania amazonensis [9], 4.92 µM; with Leishmania amazonensis [3], 3.22 µM; with Leishmania infantum [10], 2.98 µM; in assay [6] it was 23.1 µM.
`CC(C)=CCC/C(C)=C/COc1cccc(/C=C/C(=O)c2ccccc2)c1`: the “Ratio EC50” value in assay [7] worked out at 3.17; in assay [8] it was 1.28; in assay [2], 3.12; in assay [4], 10.49; in assay [5], 9.18. The EC50 in the assay with Leishmania infantum [1] is 7.81 µM; in the assay with Leishmania amazonensis [9], 25.8 µM; in the assay with Leishmania amazonensis [3], 8.92 µM; in the assay on Leishmania infantum [10] it was 63.9 µM; in the assay with Trypanosoma cruzi, 26.2 µM; in assay [6], 81.9 µM.

Source of the values: ChEMBL document CHEMBL3600370, “Synthesis and evaluation of novel prenylated chalcone derivatives as anti-leishmanial and anti-trypanosomal compounds” (Bioorg Med Chem Lett, 2015).
